Data on 2 compounds can be found in publication PMC10650464, “Natural Compounds Purified from the Leaves of Aristotelia chilensis: Makomakinol, a New Alkaloid and the Effect of Aristoteline and Hobartine on NaV Channels” (International Journal of Molecular Sciences, 2023).

Assay [1] deals with T1, human NaV1.8/β3 (Homo sapiens, UniProt Q9Y5Y9).
T1 construct: expressed in transfected cells
The assay is described as follows: Automated whole-cell patch-clamp electrophysiology (QPatch-16), NaV1.8. It counts as cell-based. To be noted: for IC50: CHO cells, mean ± SEM; for V1/2 of voltage-dependence of activation of NaV1.8 / V1/2 of voltage-dependence of steady-state fast inactivation of NaV1.8: compound at 50 µM, compared with control before addition, paired t-test. The procedure:
(§1) Human embryonic kidney (HEK) 293 cells stably expressing human NaV1.7/β1 (SB Drug Discovery, Glasgow, UK) or Chinese hamster ovary (CHO) cells stably expressing human NaV1.8/β3 in a tetracycline-inducible system were cultured in a minimum essential media (MEM) supplemented with 10% fetal bovine serum (FBS), 2 mM l-glutamine, and selection antibiotics as recommended by the manufacturer. To induce hNaV1.8 expression, tetracycline (1 μg/mL) was added to the culture media 72 h prior to the functional assays. The cells were passaged every 3–4 days after reaching a 70–80% confluence using TrypLE Express (Thermo Fisher Scientific, Scoresby, VIC, Australia) and grown in an incubator at 37 °C with 5% CO2. Prior to the electrophysiology experiments, the cells were dissociated with TrypLE Express and resuspended in Dulbecco’s Modified Eagle Medium (DMEM) with 25 mM HEPES, 100 U/mL penicillin-streptomycin, and 0.04 mg/mL of a trypsin inhibitor from Glycine max (soybean), then stirred for 30 min.
Whole-cell patch-clamp experiments were performed on a QPatch-16 automated electrophysiology platform (Sophion Bioscience, Ballerup, Denmark) using single hole (QPlate 16 with a standard resistance of 2 ± 0.4 MΩ for NaV1.7) or multi-hole (QPlate 16× with a standard resistance 0.2 ± 0.04 MΩ for NaV1.8). Whole-cell currents were filtered at 8 kHz and acquired at 25 kHz and the linear leak was corrected using P/4 subtraction (leak potential −90 mV, leak sweep amplitude 10%).
The extracellular solution contained in mM included NaCl 140 (NaCl 70/Choline Chloride 70 for NaV1.7), KCl 4, CaCl2 2, MgCl2 1, HEPES 10, and glucose 10; pH 7.4; osmolarity 305 mOsm. TTX (1 μM) was added to the extracellular solution for the NaV1.8 recordings to inhibit endogenous TTX-sensitive NaV currents in CHO cells. The intracellular solution contained in mM included CsF 140, EGTA/CsOH 1/5, HEPES 10, and NaCl 10; pH 7.3 with CsOH; osmolarity 320 mOsm. Compounds were made up to a 100 mM stock in DMSO and diluted in an extracellular solution at the concentrations stated. Concentration–response curves at the resting state were acquired using a holding potential of −90 mV and a 50 ms test pulse to −20 mV (for NaV1.7) or +10 mV (for NaV1.8) every 20 s (0.05 Hz). Concentration–response curves at the inactivated state were acquired using a holding potential of −90 mV, an 8 s conditioning pulse to −40 mV, a 20 ms recovery pulse to −90 mV, and a 50 ms test pulse to +10 mV every 20 s (0.05 Hz). Peak current was normalized to the buffer control after 2 min incubations of increasing concentrations of the compound (1–100 μM). I–V curves were obtained with a holding potential of −90 mV and a series of 500 ms step pulses that ranged from −80 to +90 mV in 5 mV increments, followed by a 20 ms test pulse to +10 mV to assess the voltage-dependence of the steady-state fast inactivation (repetition interval 5 s). Peak currents were normalized to the buffer control before and after the 5 min incubation of the compound (50 μM).
The data were plotted and analyzed via GraphPad Prism, version 9.5.1. Statistical significance was defined as p < 0.05 and was determined via the paired t-test. Concentration–response curves were fitted with a four-parameter Hill equation with the variable Hill coefficient. Conductance–voltage curves were generated by calculating the conductance (G) at each voltage (V) using the equation G = I/(V − Vrev), where Vrev is the reversal potential. Conductance–voltage and steady-state fast inactivation relationships were fitted using a Boltzmann equation. The data are expressed as the mean ± standard error of the mean (SEM).

In assay [2] the target is human NaV1.7/β1 (Homo sapiens, UniProt Q15858). The assay can be described thus: Automated whole-cell patch-clamp electrophysiology (QPatch-16), NaV1.7. It counts as cell-based. To be noted: 50 ms voltage step to −20 mV from −90 mV holding potential; HEK293 cells; mean ± SEM; read-out: IC50, inhibition of NaV1.7 peak current. Here is the method: as §1, with “min. […]” for “min.”
Sequence of human NaV1.7/β1 (Q15858 whole entry): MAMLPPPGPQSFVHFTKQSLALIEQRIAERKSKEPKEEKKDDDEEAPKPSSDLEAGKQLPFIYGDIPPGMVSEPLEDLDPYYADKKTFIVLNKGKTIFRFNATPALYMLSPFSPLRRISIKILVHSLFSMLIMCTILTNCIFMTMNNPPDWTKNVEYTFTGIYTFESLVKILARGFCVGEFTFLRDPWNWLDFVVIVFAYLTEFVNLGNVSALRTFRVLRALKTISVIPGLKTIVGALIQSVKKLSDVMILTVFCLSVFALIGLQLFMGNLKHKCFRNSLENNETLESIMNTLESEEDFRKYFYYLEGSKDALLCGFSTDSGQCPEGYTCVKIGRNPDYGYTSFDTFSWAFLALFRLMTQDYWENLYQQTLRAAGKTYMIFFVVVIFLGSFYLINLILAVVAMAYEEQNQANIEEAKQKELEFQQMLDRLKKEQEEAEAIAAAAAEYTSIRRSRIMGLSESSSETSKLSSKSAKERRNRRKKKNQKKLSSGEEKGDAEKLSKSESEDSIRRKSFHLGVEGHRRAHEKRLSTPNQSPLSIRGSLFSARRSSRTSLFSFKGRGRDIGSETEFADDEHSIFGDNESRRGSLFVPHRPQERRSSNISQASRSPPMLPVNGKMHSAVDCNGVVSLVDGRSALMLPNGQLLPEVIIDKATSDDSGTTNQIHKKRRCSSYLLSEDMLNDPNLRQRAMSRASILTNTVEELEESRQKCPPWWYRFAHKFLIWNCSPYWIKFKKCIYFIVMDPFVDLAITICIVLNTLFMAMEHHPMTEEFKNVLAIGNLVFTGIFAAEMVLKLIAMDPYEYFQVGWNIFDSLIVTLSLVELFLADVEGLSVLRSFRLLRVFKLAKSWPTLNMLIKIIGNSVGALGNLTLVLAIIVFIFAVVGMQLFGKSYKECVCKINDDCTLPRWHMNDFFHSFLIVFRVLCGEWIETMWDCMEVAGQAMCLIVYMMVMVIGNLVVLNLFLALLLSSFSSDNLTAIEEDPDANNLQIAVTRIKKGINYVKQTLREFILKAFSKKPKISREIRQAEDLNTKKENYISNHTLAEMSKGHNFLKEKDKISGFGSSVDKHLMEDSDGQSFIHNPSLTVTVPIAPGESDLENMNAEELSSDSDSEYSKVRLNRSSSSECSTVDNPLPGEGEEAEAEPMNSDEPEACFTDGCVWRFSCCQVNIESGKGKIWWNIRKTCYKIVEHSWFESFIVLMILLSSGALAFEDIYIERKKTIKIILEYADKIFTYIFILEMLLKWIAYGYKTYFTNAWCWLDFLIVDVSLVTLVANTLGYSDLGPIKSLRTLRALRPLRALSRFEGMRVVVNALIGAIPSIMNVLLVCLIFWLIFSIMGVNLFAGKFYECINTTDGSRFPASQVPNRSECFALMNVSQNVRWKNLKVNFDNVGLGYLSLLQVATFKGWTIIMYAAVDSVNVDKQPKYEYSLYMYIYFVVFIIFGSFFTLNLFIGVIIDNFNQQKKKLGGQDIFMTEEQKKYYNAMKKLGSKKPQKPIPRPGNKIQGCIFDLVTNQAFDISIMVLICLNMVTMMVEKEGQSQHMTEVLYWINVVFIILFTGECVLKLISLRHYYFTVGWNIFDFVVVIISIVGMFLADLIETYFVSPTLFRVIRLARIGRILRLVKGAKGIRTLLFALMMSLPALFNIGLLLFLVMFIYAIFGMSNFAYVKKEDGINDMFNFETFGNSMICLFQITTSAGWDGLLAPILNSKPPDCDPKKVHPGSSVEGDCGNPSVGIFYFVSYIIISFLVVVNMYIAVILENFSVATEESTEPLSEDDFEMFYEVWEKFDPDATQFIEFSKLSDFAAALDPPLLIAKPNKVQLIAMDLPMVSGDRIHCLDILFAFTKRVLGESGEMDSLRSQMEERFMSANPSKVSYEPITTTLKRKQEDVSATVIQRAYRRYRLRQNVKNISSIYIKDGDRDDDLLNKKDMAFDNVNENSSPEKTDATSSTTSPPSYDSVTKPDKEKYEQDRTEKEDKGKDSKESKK
Sequence of human NaV1.7/β1 (Q07699 19-218 partner): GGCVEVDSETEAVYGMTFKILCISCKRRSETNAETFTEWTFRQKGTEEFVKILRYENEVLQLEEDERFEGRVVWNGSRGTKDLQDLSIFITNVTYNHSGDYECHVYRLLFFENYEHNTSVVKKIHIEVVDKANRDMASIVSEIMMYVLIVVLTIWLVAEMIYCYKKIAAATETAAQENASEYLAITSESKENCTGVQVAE
The data were plotted and analyzed via GraphPad Prism, version 9.5.1. Statistical significance was defined as p < 0.05 and was determined via the paired t-test. […] The data are expressed as the mean ± standard error of the mean (SEM).

In assay [3] the test system is nAChR subtype α3β4. Also noted: method as in PMID 31276409. The following applies: cited from earlier work.
In assay [4] the test system is rodent vascular smooth muscle. Also on record: method as in PMID 31362388. To be noted: rodent vascular smooth muscle ex vivo; via activation of potassium channels and inhibition of CaV1.2; read-out: IC50, vasodilation; cited from earlier work.
Where [5] appears, read: 8 s conditioning voltage step to −40 mV to inactivate approximately half of the available channels, read-out: IC50, inhibition of NaV1.8 peak current after inactivating conditioning step.
[6] abbreviates: resting state: 50 ms voltage step to 10 mV from −90 mV holding potential, read-out: IC50, inhibition of NaV1.8 peak current.

Structures are written as SMILES. Like-named read-outs stand apart in the source and are kept apart here.

T1 sequence (Q9Y5Y9 whole entry): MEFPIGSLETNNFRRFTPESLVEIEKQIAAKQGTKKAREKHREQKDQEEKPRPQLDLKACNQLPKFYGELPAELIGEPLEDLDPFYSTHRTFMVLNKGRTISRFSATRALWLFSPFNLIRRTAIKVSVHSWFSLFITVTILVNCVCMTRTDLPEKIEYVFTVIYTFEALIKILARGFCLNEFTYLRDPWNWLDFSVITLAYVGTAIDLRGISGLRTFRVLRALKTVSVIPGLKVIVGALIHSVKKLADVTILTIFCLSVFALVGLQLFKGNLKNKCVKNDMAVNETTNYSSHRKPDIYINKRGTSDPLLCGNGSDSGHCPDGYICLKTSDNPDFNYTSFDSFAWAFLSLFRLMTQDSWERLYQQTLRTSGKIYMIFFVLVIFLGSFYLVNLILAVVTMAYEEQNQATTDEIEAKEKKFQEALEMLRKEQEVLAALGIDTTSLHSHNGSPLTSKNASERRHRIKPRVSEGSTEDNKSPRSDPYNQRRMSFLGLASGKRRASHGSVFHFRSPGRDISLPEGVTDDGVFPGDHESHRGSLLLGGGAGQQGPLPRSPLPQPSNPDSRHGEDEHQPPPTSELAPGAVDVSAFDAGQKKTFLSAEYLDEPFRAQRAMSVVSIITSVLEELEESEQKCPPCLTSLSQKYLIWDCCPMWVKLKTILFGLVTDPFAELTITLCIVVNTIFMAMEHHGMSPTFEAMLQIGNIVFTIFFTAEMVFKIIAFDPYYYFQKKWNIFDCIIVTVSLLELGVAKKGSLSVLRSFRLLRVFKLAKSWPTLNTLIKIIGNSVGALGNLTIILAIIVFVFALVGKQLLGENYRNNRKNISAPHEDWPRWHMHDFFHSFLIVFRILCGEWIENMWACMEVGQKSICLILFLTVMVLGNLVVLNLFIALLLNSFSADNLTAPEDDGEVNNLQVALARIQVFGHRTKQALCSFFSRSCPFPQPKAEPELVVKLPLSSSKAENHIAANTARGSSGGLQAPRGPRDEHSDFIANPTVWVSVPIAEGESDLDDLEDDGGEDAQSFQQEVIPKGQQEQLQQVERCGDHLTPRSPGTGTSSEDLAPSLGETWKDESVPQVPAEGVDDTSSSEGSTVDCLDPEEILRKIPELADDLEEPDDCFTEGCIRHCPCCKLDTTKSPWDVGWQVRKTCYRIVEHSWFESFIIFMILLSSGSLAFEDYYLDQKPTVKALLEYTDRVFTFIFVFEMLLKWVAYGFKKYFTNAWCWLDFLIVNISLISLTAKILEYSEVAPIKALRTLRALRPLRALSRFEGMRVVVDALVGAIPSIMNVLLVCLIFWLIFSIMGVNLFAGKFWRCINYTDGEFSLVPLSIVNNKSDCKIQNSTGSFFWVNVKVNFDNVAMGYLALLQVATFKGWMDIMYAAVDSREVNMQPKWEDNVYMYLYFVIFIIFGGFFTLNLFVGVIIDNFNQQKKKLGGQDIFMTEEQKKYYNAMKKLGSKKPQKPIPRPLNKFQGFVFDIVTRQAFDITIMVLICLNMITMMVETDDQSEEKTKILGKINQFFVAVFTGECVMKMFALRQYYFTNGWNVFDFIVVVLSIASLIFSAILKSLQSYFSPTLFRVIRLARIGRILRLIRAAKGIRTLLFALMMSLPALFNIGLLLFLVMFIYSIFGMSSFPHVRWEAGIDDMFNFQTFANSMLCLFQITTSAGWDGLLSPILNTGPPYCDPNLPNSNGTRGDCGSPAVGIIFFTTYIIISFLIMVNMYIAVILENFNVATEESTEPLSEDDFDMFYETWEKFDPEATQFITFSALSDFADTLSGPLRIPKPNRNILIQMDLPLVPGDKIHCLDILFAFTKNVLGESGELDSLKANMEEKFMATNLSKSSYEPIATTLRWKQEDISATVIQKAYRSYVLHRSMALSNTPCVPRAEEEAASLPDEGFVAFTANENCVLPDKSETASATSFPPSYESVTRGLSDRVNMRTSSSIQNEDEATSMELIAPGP
T1 sequence (Q9NY72 25-215 partner limits assumed): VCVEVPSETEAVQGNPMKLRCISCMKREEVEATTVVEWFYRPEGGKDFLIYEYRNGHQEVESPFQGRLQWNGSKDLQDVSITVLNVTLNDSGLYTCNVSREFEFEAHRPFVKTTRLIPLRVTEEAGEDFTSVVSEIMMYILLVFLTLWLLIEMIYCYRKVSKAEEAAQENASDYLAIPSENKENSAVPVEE

Regarding `CC1=CC[C@H]2C[C@@H]1[C@@H](Cc1c[nH]c3ccccc13)NC2(C)C` [hobartine], in assay [1] (50 µM, n = 5), the “Shift of V1/2 of voltage-dependence of activation of NaV1.8” value is given as −9.0 mV. Further, the IC50 in assay [1] (setting [5]) worked out at 20 ± 2 µM; in assay [1] (setting [6]), 54 ± 1 µM; in assay [2], 69 ± 3 µM. In addition, the “V1/2 of voltage-dependence of activation of NaV1.8” value in assay [1] is listed as −8.6 ± 0.8 mV. In addition, the “V1/2 of voltage-dependence of steady-state fast inactivation of NaV1.8” value in assay [1] is on record as −41.1 ± 3.8 mV.
In the case of `CC1(C)NC2Cc3c([nH]c4ccccc34)C3(C)CCC1CC23` (stereo not shown) [aristoteline], the half-maximal inhibitory concentration (IC50) in assay [1] (setting [5]) was 30 ± 6 µM; in assay [1] (setting [6]) it was 68 ± 3 µM; in assay [2], 49 ± 7 µM; in assay [3], 0.4 µM; in assay [4] it was 16 µM. In assay [1], the “V1/2 of voltage-dependence of activation of NaV1.8” value came to 1.0 ± 0.0 mV. Besides, the “V1/2 of voltage-dependence of steady-state fast inactivation of NaV1.8” value in assay [1] is reported as −34.9 ± 1.4 mV.
